Results from the supplement of paper PMC10627819.

Legend:
[1] = system: B. subtilis 168; assay: fitness (endpoint OD595 vs no drug) (fraction); higher = more growth
Procedure, shortened: (§1)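 Bacterial growth was followed in 384-well plates seeded at OD595 0.01, with 30 µl per well, or 55 µl for S. pneumoniae, in TSB, LB Lennox or CY at 37 °C. OD595 was read every 30 min for 14 h, and each reading had the first reading subtracted as background. Fitness is the background-corrected optical density at entry into stationary phase divided by the robust mean of the no-drug control wells. This ratio is capped at 1.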

[2] = system: S. aureus Newman; assay: as above
Procedure, shortened: as §1

[3] = system: B. subtilis 168; assay: Bliss interaction score (quartile over a dose matrix) (fitness difference); higher = more antagonism (negative = synergy)
Procedure, shortened: (§2)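 The Bliss score subtracts expected fitness, the product of the single-drug fitness values, from observed fitness. Fitness is plate-normalised OD595 at entry into stationary phase, relative to the robust no-drug mean and capped at 1, with single-drug fitness inferred from combinations. Summaries are quartiles over technical, biological and donor/recipient replicates.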

[4] = system: S. aureus DSM 20231; assay: as above
Procedure, shortened: as §2

[5] = system: S. aureus Newman; assay: as above
Procedure, shortened: as §2

[6] = system: S. pneumoniae D39V; assay: as above
Procedure, shortened: as §2

[7] = system: S. pneumoniae D39V; assay: fitness (endpoint OD595 vs no drug) (fraction); higher = more growth
Procedure, shortened: as §1
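Throughout, for Bliss interaction score (quartile over a dose matrix): first quartile when negative (synergy) and third quartile when positive (antagonism).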

CC[C@H]1OC(=O)[C@H](C)[C@@H](O[C@H]2C[C@@](C)(OC)[C@@H](O)[C@H](C)O2)[C@H](C)[C@@H](O[C@@H]2O[C@H](C)C[C@H](N(C)C)[C@H]2O)[C@](C)(O)C[C@@H](C)CN(C)[C@H](C)[C@@H](O)[C@]1(C)O [Azithromycin] + CN[C@@H]1[C@H](O[C@H]2[C@H](O[C@H]3[C@H](O)[C@@H](O)[C@H](N=C(N)N)[C@@H](O)[C@@H]3N=C(N)N)O[C@@H](C)[C@]2(O)C=O)O[C@@H](CO)[C@H](O)[C@H]1O [Streptomycin]
fitness
Settings | first compound 0.125 µg/mL | first compound 0.25 µg/mL | first compound 0.5 µg/mL
[1], partner 2 µg/mL | – | 0.943 | 0.843
[1], partner 4 µg/mL | – | 0.807 | 0.739
[2], partner 1 µg/mL | 0.881 | 0.849 | –

Settings | Bliss interaction score
[3] | 0.206
[4] | 0.108
[5] | 0.102
[6] | -0.0455

CC[C@H]1OC(=O)[C@H](C)[C@@H](O[C@H]2C[C@@](C)(OC)[C@@H](O)[C@H](C)O2)[C@H](C)[C@@H](O[C@@H]2O[C@H](C)C[C@H](N(C)C)[C@H]2O)[C@](C)(O)C[C@@H](C)CN(C)[C@H](C)[C@@H](O)[C@]1(C)O [Azithromycin] + CC[C@H](C)[C@H](N)C1=N[C@H](C(=O)N[C@@H](CC(C)C)C(=O)N[C@H](CCC(=O)O)C(=O)N[C@H](C(=O)N[C@H]2CCCCNC(=O)[C@H](CC(N)=O)NC(=O)[C@@H](CC(=O)O)NC(=O)[C@H](Cc3cnc[nH]3)NC(=O)[C@@H](Cc3ccccc3)NC(=O)[C@H]([C@@H](C)CC)NC(=O)[C@@H](CCCN)NC2=O)[C@@H](C)CC)CS1 [Bacitracin]
fitness, main component drawn
Settings | partner 18.75 µg/mL | partner 37.5 µg/mL | partner 75 µg/mL | partner 150 µg/mL
[1], first compound 0.25 µg/mL | – | 0.907 | 0.845 | 0.837
[1], first compound 0.5 µg/mL | – | 0.773 | 0.76 | –
[2], first compound 0.125 µg/mL | 0.654 | – | 0.0145 | –
[2], first compound 0.25 µg/mL | – | 0.0979 | 0.0091 | –
[2], first compound 0.5 µg/mL | – | 0.0136 | 0.0029 | –

[1], first compound 2 µg/mL, one replicate, main component drawn
Settings | fitness
partner 37.5 µg/mL | 0.0502
partner 75 µg/mL | 0.0262
partner 150 µg/mL | 0.0177

main component drawn
Settings | Bliss interaction score
[3] | 0.0819
[4] | -0.0556
[5] | -0.101
[6] | 0.0418

CC[C@H]1OC(=O)[C@H](C)[C@@H](O[C@H]2C[C@@](C)(OC)[C@@H](O)[C@H](C)O2)[C@H](C)[C@@H](O[C@@H]2O[C@H](C)C[C@H](N(C)C)[C@H]2O)[C@](C)(O)C[C@@H](C)CN(C)[C@H](C)[C@@H](O)[C@]1(C)O [Azithromycin] + CO/N=C(\C(=O)N[C@@H]1C(=O)N2C(C(=O)O)=C(COC(N)=O)CS[C@H]12)c1ccco1 [Cefuroxime]
fitness, one replicate
Settings | partner 0.04875 µg/mL | partner 0.0975 µg/mL | partner 0.195 µg/mL | partner 1.562 µg/mL | partner 3.125 µg/mL | partner 6.25 µg/mL
[1], first compound 0.25 µg/mL | 0.867 | 0.81 | – | 0.293 | 0.262 | 0.222
[1], first compound 0.5 µg/mL | – | – | – | 0.242 | 0.146 | 0.0811
[1], first compound 1 µg/mL | – | – | – | 0.0319 | 0.0369 | 0.0154
[1], first compound 2 µg/mL | 0.0565 | 0.0607 | 0.0393 | – | – | –
[2], first compound 0.125 µg/mL | 0.967 | 0.894 | 0.876 | – | – | –
[2], first compound 0.25 µg/mL | 0.897 | 0.878 | 0.802 | – | – | –
[2], first compound 0.5 µg/mL | 0.653 | 0.612 | 0.547 | – | – | –

fitness, [1]
Settings | partner 0.04875 µg/mL | partner 0.0975 µg/mL | partner 0.195 µg/mL | partner 0.39 µg/mL | partner 0.78 µg/mL
first compound 0.25 µg/mL | – | – | 0.556 | 0.353 | 0.305
first compound 0.5 µg/mL | 0.708 | 0.609 | – | 0.35 | 0.312
first compound 1 µg/mL | 0.463 | 0.361 | 0.215 | 0.171 | 0.16

Settings | Bliss interaction score
[3] | 0.0595
[4] | -0.24
[5] | 0.0821
[6] | 0.0571

CC1=C(C(=O)O)N2C(=O)[C@@H](NC(=O)[C@H](N)c3ccccc3)[C@H]2SC1 [Cephalexin] + C/C(=C\C(=O)OCCCCCCCCC(=O)O)C[C@@H]1OC[C@H](C[C@@H]2O[C@H]2[C@@H](C)[C@H](C)O)[C@@H](O)[C@H]1O [Pseudomonic acid]
fitness, one replicate
Settings | first compound 0.125 µg/mL | first compound 0.25 µg/mL | first compound 0.5 µg/mL | first compound 1 µg/mL | first compound 2 µg/mL
[2], partner 0.0313 µg/mL | – | – | 0.0692 | 0.0733 | 0.0904
[2], partner 0.0625 µg/mL | – | – | 0.036 | 0.0347 | 0.0466
[2], partner 0.125 µg/mL | – | – | 0.0496 | 0.0429 | 0.049
[7], partner 0.03 µg/mL | 0.933 | 0.958 | ≥ 1 | – | –
[7], partner 0.06 µg/mL | 0.733 | 0.828 | 0.893 | – | –
[7], partner 0.12 µg/mL | 0.45 | 0.559 | 0.616 | – | –

fitness, [7]
Settings | first compound 1 µg/mL | first compound 2 µg/mL | first compound 4 µg/mL
partner 0.03 µg/mL | 0.67 | – | 0.0998
partner 0.06 µg/mL | 0.6 | – | 0.123
partner 0.12 µg/mL | 0.38 | 0.215 | 0.122

Settings | Bliss interaction score
[3] | 0.0311
[4] | 0.0119
[5] | 0.0223
[6] | 0.154

CNC(C)C1CCC(N)C(OC2C(N)CC(N)C(OC3OCC(C)(O)C(NC)C3O)C2O)O1 (stereo unspecified) [Gentamicin] + CN[C@H](CC(C)C)C(=O)N[C@H]1C(=O)N[C@@H](CC(N)=O)C(=O)N[C@H]2C(=O)N[C@H]3C(=O)N[C@H](C(=O)N[C@H](C(=O)O)c4cc(O)cc(O)c4-c4cc3ccc4O)[C@H](O)c3ccc(c(Cl)c3)Oc3cc2cc(c3O[C@@H]2O[C@H](CO)[C@@H](O)[C@H](O)[C@H]2O[C@H]2C[C@](C)(N)[C@H](O)[C@H](C)O2)Oc2ccc(cc2Cl)[C@H]1O [Vancomycin]
fitness, [2], one replicate, main component drawn
Settings | first compound 0.375 µg/mL | first compound 0.75 µg/mL | first compound 1.5 µg/mL
partner 0.1875 µg/mL | ≥ 1 | ≥ 1 | 0.261
partner 0.375 µg/mL | ≥ 1 | ≥ 1 | 0.0474
partner 0.75 µg/mL | ≥ 1 | ≥ 1 | 0.0659

fitness, main component drawn
Settings | first compound 0.5 µg/mL | first compound 1 µg/mL | first compound 2 µg/mL | first compound 4 µg/mL | first compound 8 µg/mL
[2], partner 0.1875 µg/mL | 0.991 | 0.988 | – | – | –
[2], partner 0.375 µg/mL | 0.981 | 0.996 | ≥ 1 | – | –
[2], partner 0.75 µg/mL | 0.999 | ≥ 1 | ≥ 1 | – | –
[7], partner 0.03125 µg/mL | – | – | 0.974 | ≥ 1 | 0.98
[7], partner 0.0625 µg/mL | – | – | 0.949 | 0.977 | 0.952
[7], partner 0.125 µg/mL | – | – | 0.891 | 0.922 | 0.925
[7], partner 0.25 µg/mL | – | – | 0.0786 | 0.0692 | 0.0847
[7], partner 0.5 µg/mL | – | – | 0.0666 | 0.052 | 0.0832

main component drawn
Settings | Bliss interaction score
[3] | 0.0451
[4] | 0.0984
[5] | 0.0347
[6] | -0.0655

CNC(C)C1CCC(N)C(OC2C(N)CC(N)C(OC3OCC(C)(O)C(NC)C3O)C2O)O1 (stereo unspecified) [Gentamicin] + Cn1nnc(-c2ccc(-c3ccc(N4C[C@H](CO)OC4=O)cc3F)cn2)n1 [Tedizolid]
fitness, main component drawn
Settings | partner 0.03125 µg/mL | partner 0.0625 µg/mL | partner 0.125 µg/mL | partner 0.25 µg/mL | partner 0.5 µg/mL
[2], first compound 0.375 µg/mL | – | 0.965 | 0.862 | 0.176 | –
[2], first compound 0.5 µg/mL | – | 0.938 | 0.934 | 0.605 | –
[2], first compound 0.75 µg/mL | – | 0.969 | 0.771 | 0.131 | –
[2], first compound 1 µg/mL | – | 0.949 | 0.907 | – | –
[2], first compound 1.5 µg/mL | – | – | – | 0.15 | –
[2], first compound 2 µg/mL | – | 0.979 | 0.905 | 0.702 | –
[7], first compound 2 µg/mL | 0.933 | 0.964 | 0.687 | 0.259 | 0.104
[7], first compound 4 µg/mL | 0.942 | 0.964 | – | 0.211 | 0.105
[7], first compound 8 µg/mL | 0.933 | 0.954 | – | 0.242 | 0.0993

main component drawn
Settings | Bliss interaction score
[3] | 0.228
[4] | 0.0633
[5] | 0.0667
[6] | -0.112

CC1=C(C(=O)O)N2C(=O)[C@@H](NC(=O)[C@H](N)c3ccccc3)[C@H]2SC1 [Cephalexin] + CCCCCCCCCC(=O)N[C@@H]1[C@H]([C@@H]([C@H](O[C@H]1OC2=C3C=C4C=C2OC5=C(C=C(C=C5)[C@H]([C@H]6C(=O)N[C@@H](C7=C(C(=CC(=C7)O)OC8[C@H]([C@H]([C@@H]([C@H](O8)CO)O)O)O)C9=C(C=CC(=C9)[C@H](C(=O)N6)NC(=O)[C@@H]4NC(=O)[C@@H]1C2=CC(=CC(=C2)OC2=C(C=CC(=C2)[C@H](C(=O)N[C@H](CC2=CC(=C(O3)C=C2)Cl)C(=O)N1)N)O)O)O)C(=O)O)O[C@H]1[C@@H]([C@H]([C@@H]([C@H](O1)CO)O)O)NC(=O)C)Cl)CO)O)O [Teicoplanin]
fitness, [2], main component drawn
Settings | first compound 0.25 µg/mL | first compound 0.5 µg/mL | first compound 1 µg/mL
partner 0.1562 µg/mL | ≥ 1 | ≥ 1 | ≥ 1
partner 0.3125 µg/mL | ≥ 1 | ≥ 1 | ≥ 1
partner 0.625 µg/mL | ≥ 1 | ≥ 1 | ≥ 1

fitness, [2], one replicate, main component drawn
Settings | first compound 0.5 µg/mL | first compound 1 µg/mL | first compound 2 µg/mL
partner 0.62 µg/mL | 0.827 | 0.855 | 0.847
partner 1.24 µg/mL | 0.77 | 0.796 | 0.739
partner 2.48 µg/mL | 0.565 | 0.498 | 0.587

main component drawn
Settings | Bliss interaction score
[3] | 0.0688
[4] | 0.0334
[5] | 0.0429
[6] | 0.0339
